Experimental data: patent US20100273189A1, “NON SEPARATION ASSAYS WITH SELECTIVE SIGNAL INHIBITORS” (BECKMAN COULTER, INC., priority 2009, published 2010)
Values joined by “and” are separate entries in the source; they are usually repeats but may differ in a detail not shown here. Equal entries are not always repeated.

Legend:
Format in all cases: biochemical
cTnI = assay: Effect of ascorbic acid concentration on cTnI assay using various particles; conditions: ascorbic acid 150 μM to 9.4 μM; Dynal M-280, 6 μm CML, LodeStars; in words
Description: Effect of ascorbic acid on cTnI assay using various particles. The effect of varying the ascorbic acid concentration in the range 150 μM to 9.4 μM on chemiluminescence was investigated for assays employing Dynal M-280, 6 μm CML, and LodeStars particles.

HRP = target: T1, HRP (Armoracia rusticana, UniProt P00433); assay: HRP model system on PMMA particles, with and without ascorbic acid; conditions: 200 μM Ascorbate; for RLU: replicates
T1 construct: purchased Roche Diagnostics, Indianapolis, Ind., USA
T1 sequence (P00433 31-338 limits assumed): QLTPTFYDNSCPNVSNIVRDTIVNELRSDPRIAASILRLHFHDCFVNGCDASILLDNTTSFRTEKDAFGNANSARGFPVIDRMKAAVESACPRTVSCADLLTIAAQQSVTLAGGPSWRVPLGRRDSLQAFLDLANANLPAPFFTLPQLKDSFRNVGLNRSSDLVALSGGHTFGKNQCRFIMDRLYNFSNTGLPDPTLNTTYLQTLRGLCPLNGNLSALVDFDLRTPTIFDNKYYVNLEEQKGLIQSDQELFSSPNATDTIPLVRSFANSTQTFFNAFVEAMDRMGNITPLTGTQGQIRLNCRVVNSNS
Description: In order to further investigate the effect of specific solid phase particles on the assays described herein, a comparison of a variety of particle types was conducted, including silica, polymethylmethacrylate (PMMA). Carboxyl modified PMMA particles (PolyAn GmbH, Berlin) were labeled with AK and biotin as described in Example 3, followed by coating with streptavidin. Silica particles were reacted with 3-aminopropylsiloxane in 1 mM acetic acid to provide an amine reactive group. The amine functional groups were reacted with AK-3 and biotin-LC-sulfoNHS, followed by coating with streptavidin.
Signal generation with Silica and PMMA particles. Assays using the HRP model system, as generally described in Example 1, were conducted on silica particles and PMMA particles, with and without ascorbic acid in the reaction mixture. The assays were run on a modified DxI instrument as described above. The assay conditions consisted of combining 45 μL BUFFER II (with or without ascorbic acid), 25 μL of particle suspension, and 15 μL of sample and incubating for 30 min. Then 100 μL of trigger solution A was added to the reaction vessel and the light intensity was recorded.

biotinylated HRP = target: T2, biotinylated HRP (Armoracia rusticana, UniProt P00433); assay: Model system for selection of SSIA (M280 btn-BSA-AK1-streptavidin particles + Btn-HRP:HRP)
T2 construct: purchased Roche Diagnostics, Indianapolis, Ind., USA
T2 sequence (P00433 31-338 limits assumed): T1 sequence (P00433 31-338 limits assumed)

O=C1O[C@H]([C@@H](O)CO)C(O)=C1O [Ascorbic Acid, Ascorbic acid]
signal/background (cTnI): improved analytical sensitivity by increasing signal/background | Mean RLU (HRP; HRP 0 ng/ml): 20,135 RLU | S/S0 (HRP; HRP 0 ng/ml): 1.0 | RLU (HRP; HRP 0 ng/ml): 20,656 RLU and 19,436 RLU and 20,312 RLU | Mean RLU (HRP; HRP 1 ng/ml): 118,472 RLU | S/S0 (HRP; HRP 1 ng/ml): 5.9 | RLU (HRP; HRP 1 ng/ml): 116,596 RLU and 116,308 RLU and 122,512 RLU | Mean RLU (HRP; HRP 10 ng/ml): 2,061,780 RLU | S/S0 (HRP; HRP 10 ng/ml): 102.4 | RLU (HRP; HRP 10 ng/ml): 2,066,824 RLU and 2,171,080 RLU and 1,947,436 RLU | Mean RLU (HRP; HRP 100 ng/ml): 12,093,261 RLU | S/S0 (HRP; HRP 100 ng/ml): 600.6 | RLU (HRP; HRP 100 ng/ml): 12,257,256 RLU and 11,862,048 RLU and 12,160,480 RLU | Mean RLU (HRP; HRP 250 ng/ml): 12,565,744 RLU | S/S0 (HRP; HRP 250 ng/ml): 624.1 | RLU (HRP; HRP 250 ng/ml): 12,575,032 RLU and 12,552,012 RLU and 12,570,188 RLU | S/S0 (biotinylated HRP; Btn-HRP 0 ng/mL vs 0, SSIA 100 μM): 1 | B-HRP0 light intensity (biotinylated HRP; Btn-HRP 0 ng/mL, total HRP 500 ng/mL, SSIA final 100 μM): 151 and 97 | S1/S0 (biotinylated HRP; Btn-HRP 1 ng/mL vs 0, SSIA 100 μM): 6.6 and 7.8 | B-HRP1 light intensity (biotinylated HRP; Btn-HRP 1 ng/mL, total HRP 500 ng/mL, SSIA final 100 μM): 995 and 757 | S2/S0 (biotinylated HRP; Btn-HRP 10 ng/mL vs 0, SSIA 100 μM): 216.2 and 171.6 | B-HRP10 light intensity (biotinylated HRP; Btn-HRP 10 ng/mL, total HRP 500 ng/mL, SSIA final 100 μM): 32,568 and 16,641 | S3/S0 (biotinylated HRP; Btn-HRP 100 ng/mL vs 0, SSIA 100 μM): 30222.2 and 38064.9 | B-HRP100 light intensity (biotinylated HRP; Btn-HRP 100 ng/mL, total HRP 500 ng/mL, SSIA final 100 μM): 4,553,473 and 3,692,291 | S4/S0 (biotinylated HRP; Btn-HRP 250 ng/mL vs 0, SSIA 100 μM): 59176.1 and 62228.3 | B-HRP250 light intensity (biotinylated HRP; Btn-HRP 250 ng/mL, total HRP 500 ng/mL, SSIA final 100 μM): 8,915,869 and 6,036,145 | effect in the model system / utility as SSIA (biotinylated HRP; SSIA 100 μM, conclusion in words): demonstrating utility as SSIA
